This passage reports IC50 and rate constant app results from ChEMBL document CHEMBL1131502, “Thiol-induced nitric oxide release from 3-halogeno-3,4-dihydrodiazete 1,2-dioxides” (J Med Chem, 1998).

Series [1] can be described thus: The compound was tested for the concentration to reduce the viability of bovine aortic endothelial cell by 50% within 24 hr after compound addition. The format is functional, cell-based. The following applies: Bos taurus.
The species entered for another series is Homo sapiens. Kind of series: The compound was tested for half-maximum inhibition of platelet aggregation. The format is functional.
Series [2] can be described thus: apparent rate constant value of the compound. The format is ADME.

SMILES strings stand for the structures.

As a reminder, the IC50 is the concentration that gives 50% inhibition.

For the molecule `CC12CCCCC1(Br)[N+]([O-])=[N+]2[O-]` (stereo not drawn), the IC50 in series [1] is 230 µM; in the series listed under Homo sapiens, 1 µM. In addition, the rate constant app in series [2] was 0.072 M⁻¹ s⁻¹.
The corresponding values for `CC1(C)[N+]([O-])=[N+]([O-])C1(C)Br` (stereo not drawn) are 1400 µM, 10 µM and 0.052 M⁻¹ s⁻¹.
For the molecule `CC12CCCCC1(Cl)[N+]([O-])=[N+]2[O-]` (stereo not drawn), the IC50 in series [1] is more than 6000 µM. In series [2], the rate constant app is 0.0033 M⁻¹ s⁻¹.
